From US7786141B2 (Vertex Pharmaceuticals Incorporated, priority 2004, dated 2010) come the findings set out here.

The target in one assay is T1, M1 muscarinic receptor (Homo sapiens, UniProt P11229).
T1 construct: expressed in transfected cells; host or cells: CHO (M1-CHO)
T1 sequence (P11229 1-460): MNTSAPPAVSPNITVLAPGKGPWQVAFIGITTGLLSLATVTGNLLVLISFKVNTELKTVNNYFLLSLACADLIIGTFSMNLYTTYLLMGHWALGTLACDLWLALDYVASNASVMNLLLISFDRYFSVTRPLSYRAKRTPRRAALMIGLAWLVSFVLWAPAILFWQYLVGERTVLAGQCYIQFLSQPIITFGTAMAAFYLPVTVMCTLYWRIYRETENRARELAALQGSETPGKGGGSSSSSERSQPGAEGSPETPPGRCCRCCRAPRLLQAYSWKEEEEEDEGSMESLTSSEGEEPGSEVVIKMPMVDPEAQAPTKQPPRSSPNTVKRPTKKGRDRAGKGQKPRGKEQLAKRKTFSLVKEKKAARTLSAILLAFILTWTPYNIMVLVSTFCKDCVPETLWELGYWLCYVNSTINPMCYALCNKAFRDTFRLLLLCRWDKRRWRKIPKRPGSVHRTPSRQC
In words: Functional mobilization of intracellular calcium (FLIPR) in M1-CHO cells. It is filed as cell-based. Conditions: Table 4; for Emax: 100% efficacy is the maximum response obtained with the Carbachol control; for M1 Activity: M1 receptor, calcium mobilization (FLIPR). In short, it runs like this:
(§1)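 FLIPR Ca2+ read, ex 488/em 540 nm, 60 s. Recombinant CHO lines (M1 or M4), dye-loaded Fluo-3 AM 60-90 min at 37° C, probenecid 1 mM, pH 7.4. Agonist: compound alone; inhibition: 15 min compound pre-incubation, then carbachol at EC80 for that subtype.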

A further assay addresses T2, M4 muscarinic receptor (Homo sapiens, UniProt P08173).
T2 construct: expressed in transfected cells; host or cells: CHO (M4-CHO)
T2 sequence (P08173 1-479): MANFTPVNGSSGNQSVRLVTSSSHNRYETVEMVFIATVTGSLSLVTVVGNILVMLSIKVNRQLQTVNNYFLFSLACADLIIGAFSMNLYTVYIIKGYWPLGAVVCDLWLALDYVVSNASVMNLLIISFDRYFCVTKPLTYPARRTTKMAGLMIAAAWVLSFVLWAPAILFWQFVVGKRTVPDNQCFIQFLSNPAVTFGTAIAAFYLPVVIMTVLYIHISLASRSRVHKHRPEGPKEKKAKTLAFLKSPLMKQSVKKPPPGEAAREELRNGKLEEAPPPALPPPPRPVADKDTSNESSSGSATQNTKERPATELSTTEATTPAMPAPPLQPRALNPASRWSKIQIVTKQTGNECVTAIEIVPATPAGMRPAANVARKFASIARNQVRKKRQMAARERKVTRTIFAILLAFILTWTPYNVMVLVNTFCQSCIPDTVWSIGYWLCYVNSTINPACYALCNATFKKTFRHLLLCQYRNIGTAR
In words: Functional mobilization of intracellular calcium (FLIPR) in M4-CHO cells. Conditions: Table 4; for Emax: 100% efficacy is the maximum response obtained with the Carbachol control; for M4 Activity: M4 receptor, calcium mobilization (FLIPR). Format: cell-based. In short, it runs like this: as §1
A general note: Calcium assays in cells follow changes in intracellular calcium, usually with a dye or a luminescent sensor.

SMILES strings stand for the structures. Some results are limits rather than exact numbers.

Usually Emax stands for the maximal effect, on the per cent scale that the assay sets. For `CCOC(=O)N1CCC(N2CCC3(CC2)CN(C(C)=O)c2c(CC)cccc23)CC1` [compound 859], at M1 muscarinic receptor, the Emax was 25 to 100% and the “M1 Activity” value was “x (activity was measured to be greater than 5.0 μM)”. For the same compound, at M4 muscarinic receptor, the Emax lay in the range of 25 to 100% and the “M4 Activity” value is reported as “x (activity was measured to be greater than 5.0 μM)”.
Turning to `CC(=O)N1CC2(CCN(C[C@H]3CCN(c4cnccn4)C3)CC2)c2c(C)cccc21` [compound 860], on M1 muscarinic receptor, the Emax is 25 to 100% and the “M1 Activity” value is given as “xxx (activity was measured to be less than 2.0 μM)”. Also, on M4 muscarinic receptor, the Emax is 25 to 100% and the “M4 Activity” value is given as “xxx (activity was measured to be less than 2.0 μM)”.
As for `CC(=O)N[C@H]1CCC2(CCN([C@H]3CC4CC[C@H](C4)C3)CC2)c2ccccc21` [compound 861], on M1 muscarinic receptor, the Emax lay in the range of 25 to 100% and the “M1 Activity” value is on record as “xxx (activity was measured to be less than 2.0 μM)”. At M4 muscarinic receptor, the Emax was 25 to 100% and the “M4 Activity” value is “xxx (activity was measured to be less than 2.0 μM)”.
As for `CCOC(=O)N1CCC(N2CCC3(CC2)CN(C(C)=O)c2ccc(C#N)cc23)CC1` [compound 862], on M1 muscarinic receptor, the Emax fell in the range of 25 to 100% and the “M1 Activity” value is “xxx (activity was measured to be less than 2.0 μM)”. Also, on M4 muscarinic receptor, the Emax was in the range of 25 to 100% and the “M4 Activity” value is “xxx (activity was measured to be less than 2.0 μM)”.
For `Cc1ccc2c(c1)C(=O)CC21CCN(C2CCCCCC2)CC1` [compound 863], on M1 muscarinic receptor, the Emax was in the range of 25 to 100% and the “M1 Activity” value was “x (activity was measured to be greater than 5.0 μM)”. Moreover, at M4 muscarinic receptor, the Emax fell in the range of 25 to 100%; the “M4 Activity” value was “xx (activity was measured to be between 2.0 μM and 5.0 μM)”.
Consider `CC(=O)N1CC2(CCN(C[C@H]3CCN(C(=O)OC(C)C)C3)CC2)c2ccccc21` [compound 864], for which, on M1 muscarinic receptor, the Emax is less than 25% and the “M1 Activity” value is “x (activity was measured to be greater than 5.0 μM)”. For the same compound, at M4 muscarinic receptor, the Emax is less than 25% and the “M4 Activity” value is listed as “x (activity was measured to be greater than 5.0 μM)”.
As for `CCO/N=C1\CC2(CCN([C@@H]3C[C@@H]4CC[C@@H]3C4)CC2)c2cc(Cl)ccc21` [compound 865], at M1 muscarinic receptor, the Emax lay in the range of 25 to 100%; the “M1 Activity” value was “xx (activity was measured to be between 2.0 μM and 5.0 μM)”. Also, on M4 muscarinic receptor, the Emax is 25 to 100% and the “M4 Activity” value is “xxx (activity was measured to be less than 2.0 μM)”.
Take `CN(C)C(=O)N1CC2(CCN(C3CCN(c4cccc(F)c4)CC3)CC2)c2cc(F)ccc21` [compound 866]: at M1 muscarinic receptor, the Emax was 25 to 100%; the “M1 Activity” value was “xx (activity was measured to be between 2.0 μM and 5.0 μM)”. At M4 muscarinic receptor, the Emax fell in the range of 25 to 100% and the “M4 Activity” value is “xxx (activity was measured to be less than 2.0 μM)”.
For the compound `O=C(N[C@H]1CC2(CCN([C@@H]3C[C@@H]4CC[C@@H]3C4)CC2)c2ccccc21)c1ccoc1` [compound 868], on M1 muscarinic receptor, the Emax is less than 25% and the “M1 Activity” value was “x (activity was measured to be greater than 5.0 μM)”. Further, at M4 muscarinic receptor, the Emax is 25 to 100% and the “M4 Activity” value is reported as “xxx (activity was measured to be less than 2.0 μM)”.
With `CCOC(=O)N1CCC(CN2CCC3(CC2)CN(C(C)=O)c2c(C)cc(C)cc23)CC1` [compound 869], on M1 muscarinic receptor, the Emax was in the range of 25 to 100%; the “M1 Activity” value was “xx (activity was measured to be between 2.0 μM and 5.0 μM)”. In addition, on M4 muscarinic receptor, the Emax fell in the range of 25 to 100% and the “M4 Activity” value is listed as “xxx (activity was measured to be less than 2.0 μM)”.
With `CC(=O)N1CC2(CCN(C[C@H]3CCN(C(=O)OCC(F)F)C3)CC2)c2ccccc21` [compound 871], on M1 muscarinic receptor, the maximal response (Emax) is 25 to 100% and the “M1 Activity” value is “x (activity was measured to be greater than 5.0 μM)”. Further, on M4 muscarinic receptor, the Emax was 25 to 100%; the “M4 Activity” value was “xx (activity was measured to be between 2.0 μM and 5.0 μM)”.
In the case of `CCOC(=O)N1CCC(N2CCC3(CC2)CN(C(C)=O)c2ccc(C(C)C)cc23)CC1` [compound 872], on M1 muscarinic receptor, the Emax was 25 to 100% and the “M1 Activity” value is given as “xxx (activity was measured to be less than 2.0 μM)”. Further, at M4 muscarinic receptor, the Emax fell in the range of 25 to 100% and the “M4 Activity” value is “xxx (activity was measured to be less than 2.0 μM)”.
Regarding `CC1=C(CCN2CCC3(CC2)C[C@H](NC(=O)C2CCCC2)c2ccccc23)C(C)(C)CCC1` [compound 873], on M1 muscarinic receptor, the Emax is less than 25% and the “M1 Activity” value was “x (activity was measured to be greater than 5.0 μM)”. For the same compound, on M4 muscarinic receptor, the Emax was less than 25% and the “M4 Activity” value is reported as “x (activity was measured to be greater than 5.0 μM)”.
On to `CC(=O)NC1CCC2(CCN(CCC3CCCN(C(C)=O)C3)CC2)c2ccccc21` (stereo not drawn) [compound 874], for which, at M1 muscarinic receptor, the Emax lay within 25 to 100%; the “M1 Activity” value is “xx (activity was measured to be between 2.0 μM and 5.0 μM)”. In addition, at M4 muscarinic receptor, the Emax was less than 25% and the “M4 Activity” value is recorded as “x (activity was measured to be greater than 5.0 μM)”.
In the case of `COC(=O)N1CCC(CCN2CCC3(CCC(NC(C)=O)c4ccccc43)CC2)CC1` (stereo not drawn) [compound 875], on M1 muscarinic receptor, the Emax lay in the range of 25 to 100% and the “M1 Activity” value was “xxx (activity was measured to be less than 2.0 μM)”. Further, at M4 muscarinic receptor, the Emax is less than 25% and the “M4 Activity” value is on record as “x (activity was measured to be greater than 5.0 μM)”.
On the same counts, the results for `CC(=O)CN1CC2(CCN(C[C@H]3C[C@H]4C=CC3C4)CC2)c2cc(F)ccc21` [compound 877] are 25 to 100%, “xxx (activity was measured to be less than 2.0 μM)”, 25 to 100% and “xxx (activity was measured to be less than 2.0 μM)”.
For `CC(=O)CN1CC2(CCN([C@@H]3C[C@H]4CCC3C4)CC2)c2cc(C)ccc21` [compound 878] the same measures were 25 to 100%, “xxx (activity was measured to be less than 2.0 μM)”, 25 to 100% and “xxx (activity was measured to be less than 2.0 μM)”.
In the case of `CCOC(=O)N1CCC(N2CCC3(CC2)CN(c2nccs2)c2ccc(F)cc23)CC1` [compound 879], on M1 muscarinic receptor, the Emax fell in the range of 25 to 100% and the “M1 Activity” value is on record as “xxx (activity was measured to be less than 2.0 μM)”. Moreover, on M4 muscarinic receptor, the Emax lay in the range of 25 to 100% and the “M4 Activity” value is given as “xxx (activity was measured to be less than 2.0 μM)”.
Regarding `CC(=O)N1CCC(N2CCC3(CC2)CN(C(=O)N(C)C)c2ccc(F)cc23)CC1` [compound 880], at M1 muscarinic receptor, the Emax was less than 25% and the “M1 Activity” value is given as “x (activity was measured to be greater than 5.0 μM)”. Further, at M4 muscarinic receptor, the Emax was less than 25% and the “M4 Activity” value is “x (activity was measured to be greater than 5.0 μM)”.
As for `CC(=O)N[C@H]1CCC2(CCN(C3CCCCCC3)CC2)c2ccccc21` [compound 881], on M1 muscarinic receptor, the Emax lay in the range of 25 to 100% and the “M1 Activity” value is recorded as “xxx (activity was measured to be less than 2.0 μM)”. Besides, at M4 muscarinic receptor, the Emax fell in the range of 25 to 100% and the “M4 Activity” value is on record as “xxx (activity was measured to be less than 2.0 μM)”.
As to `CC(=O)N[C@@H]1CCC2(CCN(CC3CCCCC3)CC2)c2ccccc21` [compound 882], on M1 muscarinic receptor, the Emax was less than 25% and the “M1 Activity” value is given as “x (activity was measured to be greater than 5.0 μM)”. Moreover, at M4 muscarinic receptor, the Emax was less than 25% and the “M4 Activity” value is reported as “x (activity was measured to be greater than 5.0 μM)”.
